Reference: patent publication US20100292279A1, “Bis-(Sulfonylamino) Derivatives in Therapy” (ASTRAZENECA AB, priority 2009, published 2010)

Target: T1, human mPGES-1 (Homo sapiens, UniProt O14684)
T1 construct: host or cells: microsomes
T1 sequence (O14684 1-152): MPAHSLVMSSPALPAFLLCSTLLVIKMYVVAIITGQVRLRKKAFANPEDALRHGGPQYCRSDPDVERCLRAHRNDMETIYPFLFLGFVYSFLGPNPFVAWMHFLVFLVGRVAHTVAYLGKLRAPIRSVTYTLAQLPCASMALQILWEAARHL
Assay: Microsomal prostaglandin E synthase biochemical assay
Details: microsome preparation containing human mPGES-1; substrate PGH2 10.8 μM, GSH 2.5 mM, pH 6.8; PGE2 by HTRF; average of at least n=2
Experimental: Compounds were tested as inhibitors of microsomal prostaglandin E synthase activity in microsomal prostaglandin E synthase assays and whole cell assays. These assays measure prostaglandin E2 (PGE2) synthesis which is taken as a measure of prostaglandin E synthase activity. Microsomal prostaglandin E synthase biochemical assays used microsomal prostaglandin E synthase-1 in microsomal preparations. The source of the microsomes can be for example interleukin-1β-stimulated human A549 cells (which express human mPGES-1) or Sf9 cells transfected with plasmids encoding human mPGES-1 cDNA.
A solution of test compound was added to a diluted microsome preparation containing is human mPGES-1 and pre-incubated for 15 minutes in potassium phosphate buffer pH 6.8 with cofactor glutathione (GSH). Corresponding solutions without test compound were used as positive controls, and corresponding solutions without test compound and without microsomes were used as negative controls. The enzymatic reaction was then started by addition of the substrate PGH2 in an organic solution (dry acetonitrile).
The reaction was stopped after one minute by adding an acidic solution (pH 1.9) of ferric chloride and citrate (final concentrations 7 mM and 47 mM respectively), by which the PGH2 was sequestered (the PGH2 is reduced to mainly 12-hydroxy heptadecatrineoic acid (12-HHT) which is not detected by the subsequent PGE2 detection step). The resulting solution was then pH neutralized by addition of potassium phosphate buffer, prior to diluting an aliquot of the resulting solution in a weak potassium phosphate buffer (50 mM, pH 6.8) containing 0.2% BSA (w/v). […] The PGE2 formed was quantified by use of a commercial HTRF based kit (catalogue #62PG2PEC or #62P2APEC from Cisbio International). 100% activity was defined as the PGE2 production in positive controls subtracted by the PGE2 production in the negative controls. IC50 values were then determined using standard procedures.

| Compound | IC50 [µM] |
| --- | --- |
| NS(=O)(=O)c1ccccc1S(=O)(=O)NC(=O)c1ccc(C#CC(C2CC2)C2CC2)c(OCCC(F)(F)F)c1 [Example 36, 4-(3,3-Dicyclopropylprop-1-ynyl)-N-(2-sulfamoylphenylsulfonyl)-3-(3,3,3-trifluoropropoxy)benzamide] | 0.018 |
| CCCC(C)C#Cc1ccc(C(=O)NS(=O)(=O)c2ccccc2S(N)(=O)=O)cc1OC (stereo not drawn) [Example 37, 3-Methoxy-4-(3-methylhex-1-ynyl)-N-(2-sulfamoylphenylsulfonyl)benzamide] | 0.035 |
| COc1cc(C(=O)NS(=O)(=O)c2ccccc2S(N)(=O)=O)ccc1C#Cc1ccc(C(F)(F)F)cc1 [Example 38, 3-Methoxy-N-(2-sulfamoylphenylsulfonyl)-4-((4-(trifluoromethyl)phenyl)ethynyl)benzamide] | 0.0073 |
| NS(=O)(=O)c1ccccc1S(=O)(=O)NC(=O)c1ccc(C#Cc2ccc(C(F)(F)F)cc2)c(CO)c1 [Example 39, 3-(Hydroxymethyl)-N-(2-sulfamoylphenylsulfonyl)-4-((4-(trifluoromethyl)phenyl)ethynyl)benzamide] | 0.022 |
| CCCC(C)C#Cc1ccc(C(=O)NS(=O)(=O)c2ccccc2S(N)(=O)=O)cc1 (stereo not drawn) [Example 40, 4-(3-Methylhex-1-ynyl)-N-(2-sulfamoylphenylsulfonyl)benzamide] | 0.014 |
| NS(=O)(=O)c1ccccc1S(=O)(=O)NC(=O)c1ccc(C#Cc2ccc(C(F)(F)F)cc2)cc1 [Example 41, N-(2-Sulfamoylphenylsulfonyl)-4-((4-(trifluoromethyl)phenyl)ethynyl)benzamide] | 0.0057 |
| NS(=O)(=O)c1ccccc1S(=O)(=O)NC(=O)c1ccc(C#CCCCCCl)cc1 [Example 42, 4-(6-Chlorohex-1-ynyl)-N-(2-sulfamoylphenylsulfonyl)benzamide] | 0.037 |
| NS(=O)(=O)c1ccccc1S(=O)(=O)NC(=O)c1ccc(C#Cc2ccc(C(F)(F)F)cc2)nc1 [Example 43] | 0.0065 |
| CC(C)C#Cc1ncc(C(=O)NS(=O)(=O)c2ccccc2S(N)(=O)=O)cc1Cl [Example 44, 5-Chloro-6-(3-methylbut-1-ynyl)-N-(2-sulfamoylphenylsulfonyl)nicotinamide] | 0.059 |
| CC(C)C#Cc1ccc(C(=O)NS(=O)(=O)c2ccccc2S(N)(=O)=O)cc1OCCC(F)(F)F [Example 45, 4-(3-Methylbut-1-ynyl)-N-(2-sulfamoylphenylsulfonyl)-3-(3,3,3-trifluoropropoxy)benzamide] | 0.018 |
| CC(C)C#Cc1ncc(C(=O)NS(=O)(=O)c2ccccc2S(N)(=O)=O)cc1F [Example 46, 5-Fluoro-6-(3-methylbut-1-ynyl)-N-(2-sulfamoylphenylsulfonyl)nicotinamide] | 0.2 |
| NS(=O)(=O)c1ccccc1S(=O)(=O)NC(=O)c1cnc(C#Cc2ccc(C(F)(F)F)cc2)c(F)c1 [Example 47, 5-Fluoro-N-(2-sulfamoylphenylsulfonyl)-6-((4-(trifluoromethyl)phenyl)ethynyl)nicotinamide] | 0.0065 |
| NS(=O)(=O)c1ccccc1S(=O)(=O)NC(=O)c1cnc(C#Cc2ccc(C(F)(F)F)cc2)c(OCCC(F)(F)F)c1 [Example 48] | 0.01 |
| CC(C)C#Cc1ncc(C(=O)NS(=O)(=O)c2ccccc2S(N)(=O)=O)cc1OCCC(F)(F)F [Example 49, 6-(3-Methylbut-1-ynyl)-N-(2-sulfamoylphenylsulfonyl)-5-(3,3,3-trifluoropropoxy)nicotinamide] | 0.013 |
| Cc1cc(C(=O)NS(=O)(=O)c2ccccc2S(N)(=O)=O)ccc1C#CC(C)C [Example 50, 3-Methyl-4-(3-methylbut-1-ynyl)-N-(2-sulfamoylphenylsulfonyl)benzamide] | 0.017 |
| CC(C)C#Cc1ccc(C(=O)NS(=O)(=O)c2ccccc2S(N)(=O)=O)cc1OCCOCC(F)(F)F [Example 51, 4-(3-Methylbut-1-ynyl)-N-(2-sulfamoylphenylsulfonyl)-3-(2-(2,2,2-trifluoroethoxy)ethoxy)benzamide] | 0.026 |
| CC(C)C#Cc1ccc(C(=O)NS(=O)(=O)c2ccccc2S(N)(=O)=O)cc1OCC(F)F [Example 52, 3-(2,2-Difluoroethoxy)-4-(3-methylbut-1-ynyl)-N-(2-sulfamoylphenylsulfonyl)benzamide] | 0.05 |

| Compound | IC50 [µM] |
| --- | --- |
| CC(C)C#Cc1ccc(C(=O)NS(=O)(=O)c2ccccc2S(N)(=O)=O)cc1OCC(F)(F)F [Example 53, 4-(3-Methylbut-1-ynyl)-N-(2-sulfamoylphenylsulfonyl)-3-(2,2,2-trifluoroethoxy)benzamide] | 0.025 |
| CC(C)C#Cc1ccc(C(=O)NS(=O)(=O)c2ccccc2S(N)(=O)=O)cc1OC(F)(F)F [Example 54, 4-(3-Methylbut-1-ynyl)-N-(2-sulfamoylphenylsulfonyl)-3-(trifluoromethoxy)benzamide] | 0.028 |
| CC(C)C#Cc1ccc(C(=O)NS(=O)(=O)c2ccccc2S(N)(=O)=O)cc1COCCC(F)(F)F [Example 55, 4-(3-Methylbut-1-ynyl)-N-(2-sulfamoylphenylsulfonyl)-3-((3,3,3-trifluoropropoxy)methyl)benzamide] | 0.08 |
| CC(C)C#Cc1ccc(C(=O)NS(=O)(=O)c2ccccc2S(N)(=O)=O)cc1COCC(F)(F)F [Example 56, 4-(3-Methylbut-1-ynyl)-N-(2-sulfamoylphenylsulfonyl)-3-((2,2,2-trifluoroethoxy)methyl)benzamide] | 0.1 |
| NS(=O)(=O)c1ccccc1S(=O)(=O)NC(=O)c1ccc(-c2cc3ccccc3o2)c(F)c1 [Example 57, 4-(Benzofuran-2-yl)-3-fluoro-N-(2-sulfamoylphenylsulfonyl)benzamide] | 0.0085 |
| CC(C)C#Cc1ccc(C(=O)NS(=O)(=O)c2ccccc2S(N)(=O)=O)cc1OCC(F)(F)C(F)F [Example 58, 4-(3-Methylbut-1-ynyl)-N-(2-sulfamoylphenylsulfonyl)-3-(2,2,3,3-tetrafluoropropoxy)benzamide] | 0.024 |
| NS(=O)(=O)c1ccccc1S(=O)(=O)NC(=O)c1ccc(-c2cc3ccccc3o2)c(OCCC(F)(F)F)c1 [Example 59, 4-(Benzofuran-2-yl)-N-(2-sulfamoylphenylsulfonyl)-3-(3,3,3-trifluoropropoxy)benzamide] | 0.0085 |
| CC(C)(C)C#Cc1ccc(C(=O)NS(=O)(=O)c2ccccc2S(N)(=O)=O)cc1OCCC(F)(F)F [Example 60, 4-(3,3-Dimethylbut-1-ynyl)-N-(2-sulfamoylphenylsulfonyl)-3-(3,3,3-trifluoropropoxy)benzamide] | 0.03 |
| CC(C)(C)C#Cc1ccc(C(=O)NS(=O)(=O)c2ccccc2S(N)(=O)=O)cc1OCCOCC(F)(F)F [Example 61, 4-(3,3-Dimethylbut-1-ynyl)-N-(2-sulfamoylphenylsulfonyl)-3-(2-(2,2,2-trifluoroethoxy)ethoxy)benzamide] | 0.027 |
| NS(=O)(=O)c1ccccc1S(=O)(=O)NC(=O)c1ccc(-c2cc3ccccc3o2)c(OCCOCC(F)(F)F)c1 [Example 62, 4-(Benzofuran-2-yl)-N-(2-sulfamoylphenylsulfonyl)-3-(2-(2,2,2-trifluoroethoxy)ethoxy)benzamide] | 0.0091 |
| NS(=O)(=O)c1ccccc1S(=O)(=O)NC(=O)c1ccc(C#Cc2ccccc2)c(OCCOCC(F)(F)F)c1 [Example 63, 4-(Phenylethynyl)-N-(2-sulfamoylphenylsulfonyl)-3-(2-(2,2,2-trifluoroethoxy)ethoxy)benzamide] | 0.0093 |
| CC(C)C#Cc1ccc(C(=O)NS(=O)(=O)c2ccccc2S(N)(=O)=O)cc1OCCCC(F)(F)F [Example 64, 4-(3-Methylbut-1-ynyl)-N-(2-sulfamoylphenylsulfonyl)-3-(4,4,4-trifluorobutoxy)benzamide] | 0.015 |
| NS(=O)(=O)c1ccccc1S(=O)(=O)NC(=O)c1ccc(C#Cc2ccccc2)c(OCCC(F)(F)F)c1 [Example 65, 4-(Phenylethynyl)-N-(2-sulfamoylphenylsulfonyl)-3-(3,3,3-trifluoropropoxy)benzamide] | 0.0062 |
| NS(=O)(=O)c1ccccc1S(=O)(=O)NC(=O)c1ccc(C#CC2CCCC2)c(OCCC(F)(F)F)c1 [Example 66, 4-(Cyclopentylethynyl)-N-(2-sulfamoylphenylsulfonyl)-3-(3,3,3-trifluoropropoxy)benzamide] | 0.0094 |
| NS(=O)(=O)c1ccccc1S(=O)(=O)NC(=O)c1ccc(C#CC2CCCC2)c(OCCOCC(F)(F)F)c1 [Example 67, 4-(Cyclopentylethynyl)-N-(2-sulfamoylphenylsulfonyl)-3-(2-(2,2,2-trifluoroethoxy)ethoxy)benzamide] | 0.0096 |
| NS(=O)(=O)c1ccccc1S(=O)(=O)NC(=O)c1ccc(C#CC2CCCC2)c(OCCC(F)F)c1 [Example 68, 4-(Cyclopentylethynyl)-3-(3,3-difluoropropoxy)-N-(2-sulfamoylphenylsulfonyl)benzamide] | 0.012 |
